Laboratory results published in publication PMC6894422 (Journal of the American Chemical Society, 2019).

Columns and labels:
[1] = system: AXL phosphorylation in A549 NSCLC cells; experiment: pAXL assay
NOMO-1 AML cells [2] = experiment: colony formation in soft agar; format: cell-based, human; conditions: NOMO-1, 300 nM
OCI-AML5 AML cells = experiment: colony formation in soft agar; format: cell-based
[3] = system: MERTK phosphorylation in 697 ALL cells; experiment: pMERTK assay
[4] = system: kinome (222 kinases quantified) in NOMO-1 human AML cells; experiment: MIB-MS kinome profiling; format: cell-based; conditions: NOMO-1 cells, 100 nM, one hour
Kasumi-1 AML cells = experiment: cell death by PoPro-1-iodide/propidium iodide flow cytometry; format: cell-based; conditions: Kasumi-1, 300 nM, 72 hours
COLO-699 NSCLC cells = experiment: colony formation in soft agar; format: cell-based; conditions: 14 days
[5] = pharmacokinetic study in mice; format: in vivo
A549 NSCLC cells = experiment: colony formation in soft agar; format: cell-based; conditions: A549, 300 nM, 14 days
NOMO-1 AML cells [6] = experiment: cell death by PoPro-1-iodide/propidium iodide flow cytometry; conditions: NOMO-1, 300 nM, 72 hours

CC(C)C(=O)Nc1ccnc(C#Cc2ccc(Nc3ncc(-c4ccccn4)c(NC4CCC(O)CC4)n3)cc2)c1 (centres unmarked) [Compound 10]
inhibition of pAXL at higher concentrations ([1]; higher concentrations of 10): Near complete inhibition
IC50 ([1]; read-out: IC50 (AXL phosphorylation), A549 NSCLC cells, 1 hour, 95% confidence interval = 18–57 nM): 32 nM
reduction in colony number (NOMO-1 AML cells [2]): 60–75%
reduction in colony number (OCI-AML5 AML cells; OCI-AML5, 50 nM): 70%
colony formation (OCI-AML5 AML cells; OCI-AML5, 300 nM): complete abrogation of colony formation
inhibition of pMERTK at higher concentrations ([3]; higher concentrations of 10): Near complete inhibition
IC50 ([3]; read-out: IC50 (MERTK phosphorylation), 697 ALL cells, 1 hour, 95% confidence interval = 16–52 nM): 28 nM
number of kinases with lower enrichment on the beads compared to DMSO control ([4]; 222 kinases quantified): 27 kinases
number of kinases significantly decreased ([4]; p < 0.05 and log2 ratio 10/control ≥ 2): 8 kinases
tumor cell death (% of cells) (Kasumi-1 AML cells): 67%
reduction in colony number (COLO-699 NSCLC cells; COLO-699, 50 nM): 70%
colony formation (COLO-699 NSCLC cells; COLO-699, 300 nM): complete abrogation of colony formation
oral bioavailability ([5]; p.o.): weak oral bioavailability
Cmax ([5]; plasma, via i.p. route): 435 ng/mL
T1/2 ([5]; plasma, via i.p. route): 4.97 h
reduction in colony number (A549 NSCLC cells): 60–75%
tumor cell death (% of cells) (NOMO-1 AML cells [6]): 41%
